Reference: patent publication US20240060072A1, “METHOD AND COMPOSITION FOR TREATING NON-ALCOHOLIC FATTY LIVER DISEASE, ASSOCIATED CONDITIONS AND SYMPTOMS” (THE HONG KONG POLYTECHNIC UNIVERSITY, priority 2022, published 2024)

Legend:
[1] = system: HFD-fed mice; test: CCl4 or STZ treatment of HFD-fed mice: hepatic mRNA by RT-qPCR; format: in vivo, mouse; settings: compared to untreated HFD-fed mice
[2] = system: mouse SCD1 promoter; test: SCD1 promoter luciferase reporter assay and RT-qPCR in HEK293 cells; format: cell-based; settings: DHEA 100 μM for 24 h
Protocol: In vitro luciferase reporter assay was performed to further validate the expression of SCD1 is transcriptional regulated by GPR110. Plasmid harbouring luciferase gene driven by the mouse SCD1 promoter (−2000 to +100) was constructed to transfect into HEK293 cells. Typically, HEK293 cells were cultured in DMEM supplemented with 10% FBS, 100 U/ml penicillin and 100 μg/ml streptomycin at 37° C. and 5% CO2, and then seeded in 6-well plates followed by transfection with pGL3-SCD1 promoter and adenoviral vector expressing either GPR110 (ADV-GPR110) or GFP (ADV-GFP) by using the transfection reagent (#E4981, Promega, WI, USA). There was no change of luciferase activity of pGL3- SCD1 promoter-luciferase transfected HEK293 cells under the treatment of GPR110 ligand DHEA, unless the HEK293 cells were pre-infected with adenovirus overexpressing GPR110 (ADV-GPR110; FIG. 9C). The overexpression of GPR110 in ADV-GPR110 infected cells and inductions of SCD1 mRNA expression by treatment of DHEA were also validated by RT-qPCR (FIG. 9D). The changes in hepatocyte lipid profiles by the expression level of GPR110 and SCD1 were also checked. In agreement with the in vivo data, the overexpression of GPR110 increased the intracellular CHO (FIG. 9E), TG (FIG. 9F) and FFA (FIG. 9G). […] In summary, the transcription level of SCD1 is regulated by GPR110. […]

[3] = system: SCD1; test: SCD1 inhibitor MK8245 in HFD-fed rAAV-GPR110 mice: circulating lipids, liver enzymes, hepatic steatosis
Protocol: In general, 8-week-old C57BL/6J male mice were housed in pathogen-free conditions at controlled temperature with a 12-hour light-dark cycle and access to food and water ad libitum. […] Briefly, mice were tail vein injected with 3×10^11 rAAV2/8 vector harboring either green fluorescent protein (GFP) or GPR110. […] All measurements were carried out in a randomized order.
Typically, for plasma and hepatic lipid level, serum levels of triglyceride (TG) and total cholesterol (CHO) were measured using commercial kit (Biosino, biotechnology and science INC, China) according to the manufacturer's instructions. Hepatic lipids were extracted using Folch methodology and liver extract was dissolved in ethanol for TG and CHO measurements. Both serum and hepatic levels of free fatty acid (FFA) were measured using commercial kit (Solarbio, China).
Typically, for liver function assay, the alanine aminotransferase (ALT) and aspartate aminotransferase (AST) levels were measured in serum using commercial kits (Stanbio, USA).

[4] = system: SCD1; test: SCD1 inhibitor MK8245 in HFD-fed rAAV-GPR110 mice: GPR110 expression, body weight, glucose homeostasis; format: in vivo, mouse
Protocol: FIG. 10A schematically depicts a scheme of different treatments to a mouse model according to certain embodiments, where eight-week-old male C57BL/6J mice were infected with either 3×10^11 copies of rAAV encoding GPR110 (rAAV-GPR110) via i.v. or control (rAAV-GFP) via i.v. after 8-week HFD feeding, and then 2 weeks after infection treated with SCD1 inhibitor, MK8245, at 10 mg/kg/week via oral administration (p.o.) or inhibitor vehicle (inhibitor-Veh.) via p.o.;
To evaluate the impacts of high hepatic GPR110 level on liver metabolism, GPR110 was overexpressed in the hepatocytes of HFD-fed mice by liver-directed rAAV/thyroxine binding globulin (TBG)-mediated gene expression system (FIGS. 2A and 3A). In general, 8-week-old C57BL/6J male mice were housed in pathogen-free conditions at controlled temperature with a 12-hour light-dark cycle and access to food and water ad libitum. The 8-week-old male mice were divided into two groups and fed with high-fat diet (HFD, 20% protein, 45% fat, 35% carbohydrates, Research Diets Inc., New Brunswick, NJ, USA), or standard chow diet (STC, 18.3% protein, 10.2% fat, 71.5% carbohydrates, Research Diet Inc., New Brunswick, NJ, USA) in some other examples, for 8 weeks. The recombinant adeno-associated virus vector rAAV2/8 transduction was conducted as described previously (Lee et al, 2016; Cheng et al, 2022). Briefly, mice were tail vein injected with 3×10^11 rAAV2/8 vector harboring either green fluorescent protein (GFP) or GPR110. In other examples, for antisense oligonucleotide (ASO) delivery, validated ASOs against mouse GPR110 were provided by Ionis Pharmaceuticals and injected subcutaneously once a week at 5 mg/kg body weight to the mice. In some other examples, for SCD1 inhibitor delivery, MK-8245 (MedChemExpress, NJ, USA) was gavage at 10 mg/kg once a week. All measurements were carried out in a randomized order. Typically, glucose profile measurement was performed in terms of the blood glucose and insulin level by collecting the blood samples from the tip of the tail of the mouse models using a glucometer. For the glucose tolerance test (GTT), insulin tolerance test (ITT) and pyruvate tolerance test (PTT), mice were fasted overnight prior to intraperitoneal injection of glucose (1 g/kg body weight (BW)) (Sigma, St. Louis, MO), 0.75 U/kg BW insulin (Novolin R, Novo Nordisk, Bagsvaerd, Denmark) or 1 g/kg BW pyruvate (Sigma, St. Louis, MO). Blood glucose levels were measured from the tip of tail vein at 15, 30, 60, 90 and 120 minutes after injection.

[5] = HFD-fed rAAV-GPR110 mice, 10 mg/kg/week p.o.
[6] = compared to the rAAV-GPR110 littermates
[7] = HFD-fed rAAV-GPR110 mice, vs untreated littermates
[8] = rAAV-GPR110 mice, chronic treatment for 11 weeks, 10 mg/kg/week p.o.

SMILES: ClC(Cl)(Cl)Cl [CCl4]
- SCD1 mRNA expression level [1]: significantly higher
- expression of hepatic GPR110 mRNA [1]: significantly increased

SMILES: CC/C=C\C/C=C\C/C=C\C/C=C\C/C=C\C/C=C\CCC(=O)NCCO [DHEA]
- SCD1 mRNA expression ([2]; ADV-GPR110 infected HEK293 cells, RT-qPCR): inductions
- luciferase activity of pGL3-SCD1 promoter-luciferase ([2]; HEK293 cells not pre-infected with ADV-GPR110): no change

SMILES: O=C(O)Cn1nnc(-c2cc(N3CCC(Oc4cc(F)ccc4Br)CC3)no2)n1 [MK8245, 5-[3-[4-(2-bromo-5-fluorophenoxy)-1-piperidinyl]-5-isoxazolyl]-2H-tetrazole-2-acetic acid]
- HDL ([3]; HFD-fed rAAV-GPR110 mice): relatively higher
- LDL level ([3]; HFD-fed rAAV-GPR110 mice): no differences detected
- circulating FFA level ([3]; HFD-fed rAAV-GPR110 mice): no change
- severity of fibrosis ([3]; HFD-fed rAAV-GPR110 mice): partially reduced
- circulating CHO level [3, 5]: lowered
- circulating TG level [3, 5]: lowered
- ALT level [3, 6]: alleviated
- AST level [3, 6]: alleviated
- body weight ([4]; HFD-fed rAAV-GPR110 mice, 10 mg/kg/week p.o., vs untreated littermates): lowered
- HOMR-IR [4, 7]: improved
- fasting glucose level [4, 7]: improved
- insulin sensitivity by ITT [4, 7]: no change
- performance in GTT [4, 7]: improved
- performance in PTT [4, 7]: improved
- expression of GPR110 mRNA [4, 8]: did not affect
- expression of GPR110 protein [4, 8]: did not affect

SMILES: CN(N=O)C(=O)N[C@@H]1[C@@H](O)[C@H](O)[C@@H](CO)O[C@@H]1O [STZ]
- SCD1 mRNA expression level [1]: significantly higher
- expression of hepatic GPR110 mRNA [1]: significantly increased
